Results taken from patent publication US20230293519A1, “INTEGRIN INHIBITORS AND USES THEREOF IN COMBINATION WITH OTHER AGENTS” (Pliant Therapeutics, Inc., priority 2021, published 2023).
Entries after “also recorded” stand apart in the source; their conditions may differ.

Tests used:
[1] = system: IPF-derived human lung fibroblasts; test: LAP adhesion assay (xCELLigence cell index), lung fibroblasts; format: cell-based; details: IPF-derived lung fibroblasts (express αvβ1)
Protocol: Two latency associated peptide (LAP) adhesion binding assays were devised using primary human lung cells, including normal (healthy) human bronchial epithelial cells and human lung fibroblasts (healthy and IPF).
Human lung fibroblasts derived from normal and IPF lung tissue are known to express αvβ1 integrin. […] In the assay, the IPF-derived human lung fibroblasts were separately incubated with: the αvβ1-selective small molecule inhibitor; the selective antibody αvβ6 inhibitor, 3G9; and compound 5.

pSMAD2:SMAD2 ratio = pSMAD2:SMAD2 ratio in BAL of healthy human subjects; format: in vivo; details: subjects with Cmax above 700 ng/mL; Day 7 vs baseline (Day -1)
Protocol: In order to evaluate the change of pSMAD2 as a biomarker of TGF-β activity following administration of an integrin inhibitor, and to determine a therapeutically effective dosage and an effective blood plasma Cmax of the integrin inhibitor, healthy subjects were administered compound 5, a dual selective αvβ6/avβ1-integrin inhibitor, and the corresponding Cmax levels and decrease in phosphorylation levels and were determined.
Healthy non-smoking adult males without history of lung disease were selected as subjects and were randomized into 4 cohorts. Broncoalevaolar lavage samples were obtained from all subjects 1 day prior to start of treatment. Cohorts 1 and 2 were administered 20 mg of a compound daily, wherein 3 subjects were administered the dual selective αvβ6/αvβ1-integrin inhibitor (compound 5) per every 1 subject receiving a placebo compound. Cohorts 3 and 4 were administered 40 mg of a compound daily, wherein 3 subjects were administered the dual selective αvβ6/αvβ1- integrin inhibitor (compound 5) per every 1 subject receiving a placebo compound. BAL samples and blood samples were taken from all subjects on Day -1 (baseline) and on Day 7 (end of treatment).

[2] = Unbound plasma concentration in the PET/CT study; format: in vivo; details: human
Protocol: This Example was conducted as an open-label, single-dose (60 mg, 120 mg, 240 mg or 320 mg) clinical trial evaluating αvβ6 receptor occupancy in the lungs, safety, and pharmacokinetics of Compound #5 in subjects with IPF. To date, 4 participants have completed the study. Each of these 4 participants was undergoing a pre-existing course of therapy using one of the SoC (Standard of Care) compounds, nintedanib. These participants continued their pre-existing nintedanib therapy throughout this study. Knottin tracer uptake kinetics were compared pre- and post-dose of the disclosed compound, as measured by standardized uptake values (SUVs) and parameters estimated from kinetic modeling in regions-of-interest on dynamic [^18F]FP-R01-MG-F2 PET/CT scans. […] Receptor occupancy was estimated from the output of the two-compartment model (VT, the […]) using standard equations and fitting algorithms, and corrections for VND (non-displaceable tracer binding). For example, in FIG. 10, the data points, shown as circles, are modeled by the following formula: […]
FIG. 9 is a graph of unbound plasma concentration (X-axis) vs Vt (Y-axis) for the baseline Vt at each dose, the measured Vt after each dose, and a fit line. FIG. 10 is a graph of unbound plasma concentration (X-axis) vs % receptor occupancy (Y-axis). FIG. 11 is a bar chart showing % target engagement for each subject and dose.

[3] = system: patients with idiopathic pulmonary fibrosis (IPF); test: Phase 2a trial in IPF: FVC, QLF, biomarkers; format: in vivo, human; details: for proportion of patients with ≥10% decline in FVCpp: 12 weeks
From the text: The exploratory endpoints of the trial measured changes in forced vital capacity (FVC), HRCT-based Quantitative Lung Fibrosis score (QLF), and selected biomarkers over 3 months of treatment.

[4] = Phase 2a trial in IPF: pharmacokinetics; format: in vivo, human; details: IPF participants
From the text: Based on sparse sampling, overall Compound 5 pharmacokinetics and % unbound in IPF were consistent with that of previous studies. […] Overall % unbound was ~0.3 to 0.5%. Full PK curve will be predicted using population PK model to project AUC0_24 and Cmax.

In the case of `COCCN(CCCCc1ccc2c(n1)NCCC2)CC[C@H](Nc1ncnc2ccccc12)C(=O)O` [Compound 5, (S)-4-((2-methoxyethyl)(4-(5,6,7,8-tetrahydro-1,8-naphthyridin-2-yl)butyl)amino)-2-(quinazolin-4-ylamino)butanoic acid], the “inhibition of cell adhesion to LAP” value [1] was “substantially inhibited”, the “reduction in pSMAD2:SMAD2 ratio in BAL” value (pSMAD2:SMAD2 ratio) was ≥ 50% and the concentration at 4 h ([2]; 60 mg, Subject A00, 60 mg single dose) was 3.66 nM. It also gave a concentration at 4 h ([2]; 120 mg, Subject B120, 120 mg) of 10 nM, a concentration at 4 h ([2]; 240 mg, Subject B240, 240 mg) of 58.3 nM and a concentration at 4 h ([2]; 240 mg, Subject C240, 240 mg) of 103 nM. The concentration at 4 h ([2]; 320 mg, Subject D320, 320 mg) was 33.6 nM, the concentration at 4 h ([2]; Subject C320, 320 mg) was 96.5 nM and the “LS Mean change from baseline in FVC at week 12, not on SoC subgroup” value (shortened to “LS Mean change … not on SoC subgroup”) ([3]; 40 mg (N=5)) was -43.1 mL. For the same compound, the “Mean Percent Change in QLF extent from baseline to Week 12” value (“Mean Percent Change in QLF extent” below) ([3]; 40 mg (N=15)) was 3.15%, the “LS Mean change from baseline in FVC at week 12, on SoC subgroup” value (shortened to “LS Mean change … at week 12, on SoC subgroup”) ([3]; 40 mg (N=17)) was -58.3 mL and the “change in FVC from baseline to Week 12” value ([3]; 40 mg dose group) was -46.1 mL. The “reduction in FVC decline relative to placebo” value ([3]; 40 mg dose group) was 38%, the “proportion of patients with ≥10% decline in FVCpp” value ([3]; 40 mg group) was 18.2% and the “LS Mean change … not on SoC subgroup” value ([3]; 80 mg (N=4)) was “+138.1 mL”. The “Mean Percent Change in QLF extent” value ([3]; 80 mg (N=18)) was 0.70%, the “LS Mean change … at week 12, on SoC subgroup” value ([3]; 80 mg (N=19)) was -11.9 mL and the “change in FVC from baseline to Week 12” value ([3]; 80 mg dose group) was “+24.6 mL”. The “proportion of patients with > 2% increase in QLF at 12 weeks” value ([3]; 80 mg group) was 11%, the “proportion of patients with ≥10% decline in FVCpp” value ([3]; 80 mg group) was 8.7% and the “Mean Percent Change in QLF extent” value ([3]; 160 mg (N=14)) was 0.00%. For the same compound, the “LS Mean change … not on SoC subgroup” value ([3]; 160 mg (n=3)) was “+25.8 mL”, the “LS Mean change … at week 12, on SoC subgroup” value ([3]; 160 mg (n=19)) was -47.5 mL and the “change in FVC from baseline to Week 12” value ([3]; 160 mg dose group) was -25.1 mL. The “reduction in FVC decline relative to placebo” value ([3]; 160 mg dose group) was 66%, the “proportion of patients with a decrease in QLF (>2% change) at 12 weeks” value ([3]; 160 mg group) was 26.7% and the “proportion of patients with stable QLF (-2 to 2% change) at 12 weeks” value ([3]; 160 mg group) was 46.6%. The “proportion of patients with ≥10% decline in FVCpp” value ([3]; 160 mg group) was 4.5%, the “serum PRO-C3 (type III collagen synthesis) change from baseline vs placebo” value ([3]; not significant) was “decreased; also recorded: reduced” and the “serum PRO-C6 (type VI collagen synthesis) change from baseline vs placebo” value ([3]; not significant) was “decreased; also recorded: reduced”. The “change in FVC from baseline to Week 12” value ([3]; pooled Compound 5 groups) was -15.1 mL, the “dose proportionality of plasma concentrations” value ([4]; 40, 80, 160 mg once daily) was “generally dose proportional increases; also recorded: increased approximately proportionally with dose” and the fraction unbound ([4]; human, in vivo) was 0.003 to 0.005.
